The target of experiment [1] is T1, Aldose reductase (Rattus norvegicus, UniProt P07943).
T1 construct: The crystalline lenses were homogenized in 135 mM sodium-potassium-phosphate buffer; from tissue; host or cells: crystalline lens of 6 week-old male Wistar rats (30,000 rpm supernatant)
As to the kind of experiment: Aldose reductase activity measurement (in vivo), sorbitol in sciatic nerves of STZ diabetic rats. The arrangement: species or system Wistar male rats. Particulars: sciatic nerve sorbitol, oral for 2 weeks, 100 mg/kg (other compounds stated at 30 mg/kg). The protocol:
<Aldose reductase activity measurement (in vivo)>
A solution of streptozotocin (STZ) in 10 mM citrate buffer (pH 4.5) was administered intravenously to the tails of 6 week-old Wistar male rats in a dosage of 65 mg/kg. 48 hours thereafter, blood was collected from the carotid arteries of the rats. Rats with a blood sugar level of higher than 200 mg/dl were classified as diabetic rats, among which rats with a persistent high level of blood sugar were employed in the experiment. The blood sugar level was determined by the glucose oxidase method. […]
After 2-week administration, the sciatic nerves were removed from the rat under ether anesthesia, then weighed, and stored at -20° C.
The content of sorbitol in the sciatic nerves was determined as follows.
The sciatic nerves were extracted at 100° C. for 20 min. with 1 ml purified water containing 10 μg/ml arabinitol, and then 0.2 ml of 0.2M barium hydroxide and 0.2 ml of 0.19M zinc sulfate were added thereto. The sample was centrifuged (3000 rpm, 30 min.) and the supernatant was evaporated to dryness. The residue thus obtained was trimethysilylated and was then analyzed by gas chromatography.
Sorbitol is an intermediate which occurs upon the conversion of glucose into fructose by aldose reductase and is accumulated together with fructose in the crystalline lenses and sciatic nerves particularly under a high level of blood sugar. […]

The target of experiment [2] is T1, Aldose reductase. Briefly: Aldose reductase activity measurement (in vitro), rat crystalline lens enzyme, NADP fluorescence. Particulars: 20 mM glucose substrate, 30 min, 30° C., pH 7.0, read-out: 50% inhibition concentration [IC50 (M)]. It is filed as biochemical, Wistar male rats. The protocol: <Aldose reductase activity measurement (in vitro)>
6 week-old Wistar male rats were sacrificed under ether anesthesia and immediately the crystalline lenses were scissored and stored at -20° C.
The crystalline lenses were homogenized in 135 mM sodium-potassium-phosphate buffer, pH 7.0, and centrifuged for 30 min. at 30,000 rpm. The supernatant was used as an aldose-reductase solution. All the above procedures were carried out at 4° C. and the enzyme solution was stored at -20° C.
Aldose reductase activity was determined according to the method as described by Dufrane et al. (Biochemical Medicine, 32, 99-105 (1984)), as follows.
100 μl of the above enzyme solution and 100 μl of a sample solution prepared by dissolving a compound obtained in the following examples to a final concentration of from 1.0×10^-5 to 4.0×10^-7 M in dimethylsulfoxide (DMSO) were added to 800 μl of 135 mM sodium-potassium-phosphate buffer, pH 7.0, containing 100 mM lithium sulfate, 0.03 mM NADPH (reduced nicotinamide adenine dinucleotide phosphate), and 20 mM glucose as a substrate. The sample was allowed to react for 30 min. at 30° C. Then the reaction was stopped by addition of 0.3 ml of 0.5N hydrochloric acid. By adding 1 ml of 6N sodium hydroxide containing 10 mM imidazole, the NADP (oxidized nicotinamide adenine dinucleotide phosphate) formed in the above reaction was converted into a fluorescent substance, and 30 min. thereafter, the sample was measured for fluorescence intensity at the fluorescence wavelength of 460 nm (excitation wavelength: 360 nm) using fluorescence photometer F-4000 (manufactured by Hitachi, Ltd.) at room temperature. A sample containing DMSO in place of the present compound was used as a control group, and its fluorescence intensity was determined in the same manner as described above.
Aldose reductase is an enzyme that converts DL-glyceraldehyde or glucose into polyol in the presence of […] as a coenzyme, and as the reaction proceeds, NADPH is converted into NADP.

In the case of `COc1c(O)cc2oc(Oc3ccc(O)cc3)cc(=O)c2c1O` [Capillarisin], the “Repression (%)” value at Aldose reductase [1] was 18.9%.

Regarding `CC(C)Oc1cc(OC(C)C)c2c(=O)cc(Sc3ccc(O)cc3)oc2c1` [Example 1, 2-(4-hydroxyphenylthio)-5,7-di-isopropoxychromone], the IC50 on Aldose reductase [2] turned out to be 1.8e-08 M.

As to `O=c1cc(Sc2ccc(O)cc2)oc2cc(O)cc(O)c12` [Example 4, 5,7-dihydroxy-2-(4-hydroxyphenylthio)chromone], on Aldose reductase [2], the IC50 stood at 3.2e-07 M.

As for `CC(C)Oc1cc(O)c2c(=O)cc(Sc3ccc(O)cc3)oc2c1` [Example 5, 5-hydroxy-2-(4-hydroxyphenylthio)-7-isopropoxychromone], the IC50 at Aldose reductase [2] was determined as 2.3e-07 M.

For `COc1cc(OC(C)C)cc2oc(Sc3ccc(O)cc3)cc(=O)c12` [Example 6, 2-(4-hydroxyphenylthio)-7-isopropoxy-5-methoxychromone], the IC50 on Aldose reductase [2] came out at 8e-08 M.

Values taken from US5521216A, “Chromone derivative, and aldose reductase inhibitor comprising said compound as active ingredient” (Tsumura & Co., priority 1992, dated 1996).
